In patent US9232796B2, “Herbicidal compositions comprising 4-amino-3-chloro-5-fluoro-6-(4-chloro-2-fluoro-3-methoxyphenyl) pyridine-2-carboxylic acid or a derivative thereof and acetyl-CoA carboxylase (ACCase) inhibitors” (DOW AGROSCIENCES LLC, priority 2012, dated 2016):

Assays:
BRAPP = experiment: Example I postemergence foliar-applied, greenhouse, direct seeded rice weeds; assay type: in vivo, Brachiaria platyphylla (Griseb.) Nash; settings: 70 gai/ha
Description: (§1) Seeds or nutlets of the desired test plant species were planted in a soil matrix prepared by mixing a loam or sandy loam soil (e.g., 28.6 percent silt, 18.8 percent clay, and 52.6 percent sand, with a pH of about 5.8 and an organic matter content of about 1.8 percent) and calcareous grit in an 80 to 20 ratio. The soil matrix was contained in plastic pots with a volume of 1 quart and a surface area of 83.6 square centimeters (cm^2). When required to ensure good germination and healthy plants, a fungicide treatment and/or other chemical or physical treatment was applied. The plants were grown for 8-22 days in a greenhouse with an approximate 14 hr. photoperiod which was maintained at about 29° C. during the day and 26° C. during the night. Nutrients (Peters Excel® 15-5-15 5-Ca 2-Mg and iron chelate) were applied in the irrigation solution as needed and water was added on a regular basis. Supplemental lighting was provided with overhead metal halide 1000-Watt lamps as necessary. The plants were employed for testing when they reached the first through fourth true leaf stage.
(§2) Treatments consisted of the acid or esters of 4-amino-3-chloro-5-fluoro-6-(4-chloro-2-fluoro-3-methoxy-phenyl)pyridine-2-carboxylic acid (Compound A), each formulated as an SC (suspension concentrate), and various herbicidal components alone and in combination.
(§3) Other herbicidal components were applied on an acid equivalent (ae) or active ingredient (ai) basis and included acetyl coA carboxylase (ACCase)-inhibiting herbicides (cyclohexanedione and aryloxyphenoxypropionate chemical classes) cyhalofop-butyl formulated as Clincher® SF (285 gr ai/L EC), diclofop-methyl formulated as Hoelon® 3EC, fenoxaprop-p-ethyl+isoxadifen-ethyl formulated as RiceStar® HT (0.58 lb./gal EC), fenoxaprop-p-ethyl+mefenpyr diethyl formulated as Puma® IEC, metamifop formulated as Metamifop EC, haloxyfop-methyl formulated as Gallant Super®, fluazifop-p-butyl formulated as Fusilade® DX, quizalofop-p-ethyl formulated as Assure® II, profoxydim formulated as Aura® 20EC, clethodim applied as Intensity®, sethoxydim formulated as Poast®, and tralkoxydim formulated as Achieve®.
(§4) Treatment requirements were calculated based upon the rates being tested, the concentration of active ingredient or acid equivalent in the formulation, and a 12 mL application volume at a rate of 187 L/ha.
(§5) For treatments comprised of formulated compounds, measured amounts of compounds were placed individually in 25 mL glass vials and diluted in a volume of 1.25% (v/v) Agri-Dex® crop oil concentrated to obtain 12× stock solutions. […] Application solutions were prepared by adding an appropriate amount of each stock solution (e.g., 1 mL) and diluted to the appropriate final concentrations with the addition of 10 mL of an aqueous mixture of 1.25% (v/v) crop oil concentrate so that the final spray solutions contained 1.25+/−0.05% (v/v) crop oil concentrate.
(§6) All stock solutions and applications solutions were visually inspected for compound compatibility prior to application. Spray solutions were applied to the plant material with an overhead Mandel track sprayer equipped with a 8002E nozzles calibrated to deliver 187 L/ha over an application area of 0.503 m^2 at a spray height of 18 to 20 inches (46 to 50 cm) above average plant canopy height. Control plants were sprayed in the same manner with the solvent blank.
(§7) The treated plants and control plants were placed in a greenhouse as described above and watered by sub-irrigation to prevent wash-off of the test compounds. After approximately 3 weeks, the condition of the test plants as compared with that of the untreated plants was determined visually and scored on a scale of 0 to 100 percent where 0 corresponds to no injury or growth inhibition and 100 corresponds to complete kill. […]

SCPJU [1] = experiment: as above; assay type: in vivo, Schoenoplectus juncoides (Roxb.) Palla
Description: as §1, §2, §3, §4, §5, §6, §7

DIGSA = experiment: as above; assay type: in vivo, Digitaria sanguinalis (L.) Scop.; settings: 70 gai/ha
Description: as §1
Treatments consisted of the acid or esters of 4-amino-3-chloro-5-fluoro-6-(4-chloro-2-fluoro-3-methoxy-phenyl)pyridine-2-carboxylic acid (Compound A), each formulated as an SC (suspension concentrate), and various herbicidal components alone and in combination. […]
as §4
For treatments comprised of formulated compounds, measured amounts of compounds were placed individually in 25 mL glass vials and diluted in a volume of 1.25% (v/v) Agri-Dex® crop oil concentrated to obtain 12× stock solutions. […]
as §7

CYPES = experiment: as above; assay type: in vivo, Cyperus esculentus L.
Description: as §1, §2, §3, §4, §5, §6, §7

SCPMA = experiment: Example VI in-water applied ternary mixtures, greenhouse, transplanted paddy rice weeds; assay type: in vivo; settings: Table 68, pyraclonil 22.5 gai/ha
ECHCG [2] = experiment: as above; assay type: in vivo, Echinochloa crus-galli (L.) Beauv.; settings: Table 68, 22.5 gai/ha, 21 DAA
Method: (§8) Weed seeds or nutlets of the desired test plant species were planted in puddled soil (mud) prepared by mixing a shredded, non-sterilized mineral soil (50.5 percent silt, 25.5 percent clay, and 24 percent sand, with a pH of about 7.6 and an organic matter content of about 2.9 percent) and water at a 1:1 volumetric ratio. The prepared mud was dispensed in 365 mL aliquots into 16-ounce (oz.) non-perforated plastic pots with a surface area of 86.59 square centimeters (cm^2) leaving a headspace of 3 centimeters (cm) in each pot. Mud was allowed to dry overnight prior to planting or transplanting. Rice seeds were planted in Sun Gro MetroMix® 306 planting mixture, which typically has a pH of 6.0 to 6.8 and an organic matter content of about 30 percent, in plastic plug trays. Seedlings at the second or third leaf stage of growth were transplanted into 860 mL of mud contained in 32-oz. non-perforated plastic pots with a surface area of 86.59 cm^2 4 days prior to herbicide application. The paddy was created by filling the headspace of the pots with 2.5 to 3 cm of water. When required to ensure good germination and healthy plants, a fungicide treatment and/or other chemical or physical treatment was applied. The plants were grown for 4-22 days in a greenhouse with an approximate 14 hr. photoperiod which was maintained at about 29° C. during the day and 26° C. during the night. Nutrients were added as Osmocote® (19:6:12, N:P:K+minor nutrients) at 2 g per 16-oz. pot and 4 g per 32-oz. pot. Water was added on a regular basis to maintain the paddy flood, and supplemental lighting was provided with overhead metal halide 1000-Watt lamps as necessary. The plants were employed for testing when they reached the first through fourth true leaf stage.
Treatments consisted of the benzyl ester of 4-amino-3-chloro-5-fluoro-6-(4-chloro-2-fluoro-3-methoxy-phenyl)pyridine-2-carboxylic acid (Compound A), formulated as an SC (suspension concentrate), an ACCase inhibitor herbicide, and a third herbicidal component, each applied alone and in ternary combination. Forms of compound A were applied on an acid equivalent basis.
The ACCase inhibitor component was applied on an active ingredient basis and included cyhalofop-R-butyl formulated as Clincher® G and metamifop formulated as Metamifop EC. Other herbicidal components were applied on an active ingredient or acid equivalent basis depending on the compound and included penoxsulam formulated as Grasp® SC, bentazon sodium formulated as Basagran®, triclopyr […] (TEA) salt formulated as Grandstand® R, benzobicyclon formulated as Benzobicyclon, benfuresate formulated as Full Slot® WG, pyraclonil formulated as Pyraclon® Flowable, mefenacet (technical grade material), and pretilachlor (technical grade material).
Treatment requirements for each compound or herbicidal component were calculated based upon the rates being tested, the concentration of active ingredient or acid equivalent in the formulation, an application volume of 1 mL per component per pot, and an application area of 86.59 cm^2 per pot.
(§9) For formulated compounds, a measured amount was placed in an individual 100 or 200 mL glass vial and was dissolved in a volume of 1.25% (v/v) Agri-Dex® crop oil concentrate to obtain application solutions.
For technical grade compounds, a weighed amount was placed in an individual 100 to 200 mL glass vial and was dissolved in a volume of acetone to obtain concentrated stock solutions.
(§10) Applications were made by injecting with a pipetter appropriate amounts of the application solutions, into the aqueous layer of the paddy. Control plants were treated in the same manner with the solvent blank. Applications were made so that all treated plant material received the same concentrations of acetone and crop oil concentrate.
The treated plants and control plants were placed in a greenhouse as described above and water was added as needed to maintain a paddy flood. […]

CYPDI = experiment: Example I postemergence foliar-applied, greenhouse, direct seeded rice weeds; assay type: in vivo, Cyperus difformis L.
Description: as §1, §2, §3, §4, §5
All stock solutions and applications solutions were visually inspected for compound compatibility prior to application. […]
as §7

SCPJU [3] = experiment: Example II in-water applied, greenhouse, transplanted paddy rice weeds; assay type: in vivo, Schoenoplectus juncoides (Roxb.) Palla; settings: in-water, 135 gai/ha
Method: as §8, with “When required to ensure good germination and healthy plants, a fungicide treatment and/or other chemical or physical treatment was applied.” left out
(§11) Treatments consisted of the acid or esters of 4-amino-3-chloro-5-fluoro-6-(4-chloro-2-fluoro-3-methoxy-phenyl)pyridine-2-carboxylic acid (compound A) each formulated as an SC (suspension concentrate) and various herbicidal components alone and in combination.
as §9
as §10, with “solutions, individually and sequentially,” for “solutions,”
(§12) The treated plants and control plants were placed in a greenhouse as described above and water was added as needed to maintain a paddy flood. After approximately 3 weeks the condition of the test plants as compared with that of the untreated plants was determined visually and scored on a scale of 0 to 100 percent where 0 corresponds to no injury or growth inhibition and 100 corresponds to complete kill.
(§13) Colby's equation was used to determine the herbicidal effects expected from the mixtures (Colby, S. R. 1967. Calculation of the synergistic and antagonistic response of herbicide combinations. Weeds 15:20-22.).
(§14) The following equation was used to calculate the expected activity of mixtures containing two active ingredients, A and B: Expected=A+B−(A×B/100)

FIMMI = experiment: as above; assay type: in vivo, Fimbristylis miliacea (L.) Vahl
Method: as §8, with “When required to ensure good germination and healthy plants, a fungicide treatment and/or other chemical or physical treatment was applied.” left out
as §11, §9
as §10, with “solutions, individually and sequentially,” for “solutions,”
as §12, §13, §14

ECHCG [4] = experiment: as above; assay type: in vivo, Echinochloa crusgalli (L.) Beauv.; settings: 135 gai/ha
Method: as §10, with “solutions, individually and sequentially,” for “solutions,”
as §12, §13, §14

CYPIR = experiment: Example I postemergence foliar-applied, greenhouse, direct seeded rice weeds; assay type: in vivo, Cyperus iria L.
Description: as §1, §2, §3, §4, §5, §6, §7

LEFCH = experiment: as above; assay type: in vivo, Leptochloa chinensis (L.) Nees; settings: 112 gai/ha
Description: as §1, §2, §3, §4, §5, §6, §7

ECHCG [5] = experiment: as above; assay type: in vivo, Echinochloa crusgalli (L.) Beauv.
Description: as §1, §2, §3, §4, §5, §6, §7

Compound: CCSC(C)CC1CC(=O)C(/C(CC)=N/OC/C=C/Cl)=C(O)C1 (stereo not shown) [Clethodim, 2-[1-[[[(2E)-3-chloro-2-propen-1-yl]oxy]imino]propyl]-5-[2-(ethylthio)propyl]-3-hydroxy-2-cyclohexen-1-one, reference compound]
- Visual Weed Control (%) - 20 DAA BRAPP Obs (BRAPP): 10%
- Visual Weed Control (%) - 20 DAA SCPJU Obs (SCPJU [1]; 140 gai/ha): 0%
- Visual Weed Control (%) - 20 DAA SCPJU Obs (SCPJU [1]; 280 gai/ha): 0%
- Visual Weed Control (%) - 20 DAA DIGSA Obs (DIGSA): 50%
- Visual Weed Control (%) - 20 DAA CYPES Obs (CYPES; 70 gai/ha): 0%
- Visual Weed Control (%) - 20 DAA CYPES Obs (CYPES; 140 gai/ha): 0%
- Visual Weed Control (%) - 20 DAA CYPES Obs (CYPES; 280 gai/ha): 0%

Compound: C#CCN(C)c1c(C#N)cnn1-c1nn2c(c1Cl)CCCC2 [Pyraclonil]
- Visual Weed Control (%) - 21 DAA SCPMA Obs (SCPMA): 78%
- Visual Weed Control (%) - 21 DAA ECHCG Obs (ECHCG [2]): 30%

Compound: CCC/C(=N\OCC)C1=C(O)CC(CC(C)SCC)CC1=O (stereo not shown) [Sethoxydim, 2-[1-(ethoxyimino)butyl]-5-[2-(ethylthio)propyl]-3-hydroxy-2-cyclohexen-1-one]
- Visual Weed Control (%) - 22 DAA CYPDI Obs (CYPDI; 67.5 gai/ha): 0%
- Visual Weed Control (%) - 22 DAA CYPDI Obs (CYPDI; 135 gai/ha): 0%
- Visual Weed Control (%) - 22 DAA CYPDI Obs (CYPDI; 270 gai/ha): 0%
- Visual Weed Control (%) - 21 DAA SCPJU Obs (SCPJU [3]): 0%
- Visual Weed Control (%) - 22 DAA SCPJU Obs (SCPJU [1]; 67.5 gai/ha): 0%
- Visual Weed Control (%) - 22 DAA SCPJU Obs (SCPJU [1]; 135 gai/ha): 0%
- Visual Weed Control (%) - 22 DAA SCPJU Obs (SCPJU [1]; 270 gai/ha): 0%
- Visual Weed Control (%) - 21 DAA FIMMI Obs (FIMMI; 135 gai/ha): 50%
- Visual Weed Control (%) - 21 DAA FIMMI Obs (FIMMI; 270 gai/ha): 30%
- Visual Weed Control (%) - 21 DAA ECHCG Obs (ECHCG [4]): 60%
- Visual Weed Control (%) - 22 DAA CYPIR Obs (CYPIR; 67.5 gai/ha): 0%
- Visual Weed Control (%) - 22 DAA CYPIR Obs (CYPIR; 135 gai/ha): 0%
- Visual Weed Control (%) - 22 DAA CYPIR Obs (CYPIR; 270 gai/ha): 0%
- Visual Weed Control (%) - 22 DAA LEFCH Obs (LEFCH): 70%
- Visual Weed Control (%) - 22 DAA ECHCG Obs (ECHCG [5]; 56 gai/ha): 30%
- Visual Weed Control (%) - 22 DAA ECHCG Obs (ECHCG [5]; 112 gai/ha): 90%
- Visual Weed Control (%) - 22 DAA CYPES Obs (CYPES; 67.5 gai/ha): 0%
- Visual Weed Control (%) - 22 DAA CYPES Obs (CYPES; 135 gai/ha): 0%
- Visual Weed Control (%) - 22 DAA CYPES Obs (CYPES; 270 gai/ha): 0%
